Marks after values point to notes of the source that are not given here.
Tests used:
[1] = tested on: skin capillary permeability induced by xylene in mice; assay: Increase of skin capillary permeability induced by xylene in mice (Evans blue); format: in vivo; details: extracts 2 mL/kg intragastric, dexamethasone 0.375 mg/kg, once a day 7 times
Procedure: Fifty mice weighing 18-22 g were randomly divided into five groups according to their body weights: MLX, MLG and MLP test groups. […] One hour after the last administration, various mice were injected with 0.5% Evans blue normal saline solution by 0.1 ml/10 g bw via caudal vein, and then xylene were dropped by 30 μL/per mouse on the abdominal skin depilated 24 hours in advance. After 20 minutes, the mice were killed by removing the cervical vertebra. The blue stained skin on the abdomen was cut off, and cut into pieces with surgical scissors, placed into a test tube with a plug, added with and soaked in 5 ml of acetone normal saline (7:3), placed in the dark for 72 hours, and centrifuged at 3000 r/min for 10 minutes to obtain a supernatant. Colorimetric detection was performed at the wavelength of 590 nm on a spectral scanning multifunctional reader to measure the absorbance (OD value). The permeability is represented by OD value, and the results are statistically compared.

[2] = tested on: cotton ball granuloma in mice; assay: Cotton ball granuloma in mice; format: in vivo; details: extracts 2 mL/kg, dexamethasone 0.2 mg/kg, 7 consecutive days, n=10
Procedure: Fifty mice weighing 18-22 g were taken, 10/group, half male and half female. The mice were fixed, and disinfected on the chest with iodine. Iodine was removed with 75% alcohol cotton ball. A small hole was cut in the chest, 20 mg high-pressure sterilized cotton ball was implanted into the armpit subcutaneously from the incision with ophthalmic forceps, and then the skin was sutured. […] The above groups were administrated for 7 consecutive days. Before the end of the test on the 8th day, the body weight was measured, then the mice were killed by taking off the cervical vertebra. The implanted cotton ball was taken out together with the surrounding connective tissue, removed of the adipose tissue, wet weighted, placed into the oven at 60° C. for 24 hours, and weighed on a precision balance. The weight of granuloma was obtained by subtracting the original weight of cotton ball from the weighed weight, and the comparison and statistical analysis between groups were carried out.

[3] = tested on: NO release, LPS induced mouse macrophages (RAW264.7); assay: NO release of LPS-stimulated RAW264.7 macrophages (Griess method); format: cell-based; details: positive drug andrographolide group; LPS 1 μg/mL, NO at 12 h; n=3
Procedure: (§1) Based on TNF-a-IL-6/iNOS-NO inflammatory signal pathway, the regulatory effects of drugs MLG, MLP and MLX on LPS induced inflammation of mouse macrophages (RAW264.7) were evaluated.
(§2) The original solution of drugs MLG, MLP and MLX was diluted by 80 times, 120 times and 160 times, respectively, incubated with cells for 12 h in advance, and used to stimulate cells to induce inflammation by a final concentration of 1 μg/ml LPS. Enzyme linked immunosorbent assay (ELISA) and Griess method were used to detect the release amount of TNF-α at 50 min, and IL-6 at 4 h and NO at 12 h upon LPS stimulation.
(§3) The original solution of drugs MLG, MLP and MLX was diluted by 80 times, 120 times and 160 times respectively, incubated with cells for 12 hours in advance, and then added with 1 μg/mL LPS to stimulate cell inflammation. […]
(§4) All indexes were tested strictly in accordance with the instructions of kits. Finally, the absorbance value at the specific wavelengths were detected on an enzyme labeling instrument, and the content of indexes of each sample were calculated according to the standard curve prepared by the same method. If the absorbance value is lower than the absorbance value of the sample at the lower limit of the standard curve, it is counted as lower than the relevant value, and the relevant statistics are calculated as 0 mean and 0 variance.

[4] = tested on: TNF-α release, LPS induced mouse macrophages (RAW264.7); assay: TNF-α release of LPS-stimulated RAW264.7 macrophages (ELISA); format: cell-based; details: positive drug andrographolide group; LPS 1 μg/mL, TNF-α at 50 min; n=3
Procedure: as §1, §2, §3, §4

[5] = tested on: IL-6 release, LPS induced mouse macrophages (RAW264.7); assay: IL-6 release of LPS-stimulated RAW264.7 macrophages (ELISA); format: cell-based; details: positive drug andrographolide group; LPS 1 μg/mL, IL-6 at 4 h; n=3
Procedure: as §1, §2, §3, §4

SMILES | inhibition at 0.375 mg/kg ([1]; Mus musculus, po, 168 h, n=10, read-out: Inhibitory rate) [%] | Inhibitory rate ([1]; n=10) [%] | Dry weigh of granuloma [2] | Wet weigh of granuloma [2] [mg] | NO [3] [µM] | TNF-α [4] [pg/mL] | IL-6 [5] [pg/mL]
C[C@@H]1C[C@H]2[C@@H]3CCC4=CC(=O)C=C[C@]4(C)[C@@]3(F)[C@@H](O)C[C@]2(C)[C@@]1(O)C(=O)CO [dexamethasone] | > 80 | 80.7 | 35.63 ± 8.38**^ mg | 252.3 ± 33.6 |  |  | 
C=C1CC[C@@H]2[C@](C)(CO)[C@H](O)CC[C@@]2(C)[C@@H]1C/C=C1/C(=O)OC[C@H]1O [Andro., andrographolide] |  |  |  |  | 1.86 ± 0.34 | 592.26 ± 45.7 | 286.07 ± 47.81
